The target of this assay is T1, Cholesteryl ester transfer protein (Homo sapiens, UniProt P11597).
T1 sequence (P11597 whole entry): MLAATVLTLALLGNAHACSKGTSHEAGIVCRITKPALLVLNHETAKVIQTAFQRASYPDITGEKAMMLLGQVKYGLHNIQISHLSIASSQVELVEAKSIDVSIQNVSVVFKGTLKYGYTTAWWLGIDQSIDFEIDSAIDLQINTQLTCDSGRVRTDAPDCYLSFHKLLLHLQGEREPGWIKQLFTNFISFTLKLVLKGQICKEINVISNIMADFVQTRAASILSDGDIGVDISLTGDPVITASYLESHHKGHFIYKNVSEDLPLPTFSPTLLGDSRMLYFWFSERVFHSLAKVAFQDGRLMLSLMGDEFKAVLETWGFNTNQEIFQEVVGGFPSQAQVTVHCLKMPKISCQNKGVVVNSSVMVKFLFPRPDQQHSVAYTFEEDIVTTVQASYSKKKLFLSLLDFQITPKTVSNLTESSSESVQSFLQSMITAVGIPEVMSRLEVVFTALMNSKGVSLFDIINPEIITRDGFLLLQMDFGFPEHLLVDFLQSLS
The assay is described as follows: In vitro inhibition of CETP activity was assessed by measuring the rate of [3H]- cholesteryl ester transfer from HDL to apoprotein B-containing lipoproteins in human plasma. It counts as cell-free.
In general, IC50 refers to the concentration at which inhibition is half-maximal. Read a high IC50 as weaker potency. Compound `CC(C)CCC1(C(=O)Nc2ccc(Cl)cc2SC(=O)C(C)(C)C)CCCCC1` registered an IC50 of 10 µM. Take `CC(C)(C)C(=O)Sc1ccc(F)cc1NC(=O)C1(C)CCCCC1`: 70 µM corresponded to half-maximal inhibition (IC50).

`Cc1ccc(SC(=O)C(C)(C)C)c(NC(=O)C2(CCC(C)C)CCCCC2)c1` registered an IC50 of more than 300 µM. `COc1ccc(SC(=O)C(C)(C)C)c(NC(=O)C2(C)CCCCC2)c1` registered a 50% inhibitory concentration (IC50) of more than 300 µM. `COc1ccc(SC(=O)C(C)(C)C)c(NC(=O)C2(CCC(C)C)CCCCC2)c1` gave an IC50 of more than 300 µM. On to `CC(C)(C)C(=O)Sc1ccc(C#N)cc1NC(=O)C1(C)CCCCC1`, for which the midpoint of inhibition, the IC50, lay at 102 µM. As for `CC(C)(C)C(=O)Sc1cc(F)ccc1NC(=O)C1(C)CCCCC1`, the IC50 is 78 µM.

`CC(C)(C)C(=O)Sc1c(F)cccc1NC(=O)C1(C)CCCCC1` registered an IC50 of more than 300 µM. For `CC(C)CCC1(C(=O)Nc2cc(Cl)ccc2SC(=O)C(C)(C)C)CCCCC1`, it took 13 µM to reach half-maximal inhibition (IC50). `CC(C)CCC1(C(=O)Nc2cc(C(F)(F)F)ccc2SC(=O)C(C)(C)C)CCCCC1` had an IC50 of 13 µM. Turning to `CC(C)(C)C(=O)Sc1cc(F)cc(F)c1NC(=O)C1(C)CCCCC1`, the IC50 is more than 300 µM.

The values above are taken from ChEMBL document CHEMBL1137926, “S-(2-(acylamino)phenyl) 2,2-dimethylpropanethioates as CETP inhibitors” (Bioorg Med Chem Lett, 2004).
